Results as given in publication PMC9578445, “Association of respiratory failure with inhibition of NaV1.6 in the phrenic nerve” (Channels, 2022).
Read-outs that look alike come from different tables or passages of the source.

Tests used:
[1] = system: phrenic nerve; assay: Rat phrenic nerve firing assay; conditions: rat in vivo, measured at 30 minutes
Procedure: To determine direct effects on phrenic nerve activity, male CD rats were anesthetized and instrumented as described above for the CV/R assay. In addition, an incision was made in the ventral neck area and the right phrenic nerve identified anatomically and isolated via blunt dissection. The phrenic nerve was placed over a high impedance bipolar hook electrode and the nerve covered with mineral oil to prevent desiccation. Animals were mechanically ventilated via a tracheotomy (~10 mL/kg, 40–70 breaths/min, titrated individually to stabilize phrenic activity) following neuromuscular block (pancuronium 0.5–1 mg/kg, iv) and bilateral vagotomy to better define test agent effects on phrenic nerve activity. Anesthesia was verified repeatedly following pancuronium administration by testing the BP/HR response to noxious stimuli. Spontaneous electrical activity was continuously recorded and then later rectified and averaged to calculate frequency, width, peak height of bursts, and magnitude. Magnitude of the activity was calculated by taking the absolute value of the raw signal and then averaging that signal over 50 ms increments. The resulting average signal was then converted to magnitude by subtracting the […] for each phrenic burst complex. The resulting magnitude values were then averaged over 1 minute increments to result in the graphs shown. Figure S1 in the Supplemental Information illustrates this analytical procedure.
(§1) For in vivo CVR and phrenic nerve activity studies, all raw signals were amplified via general purposed biological amplifier (filter settings DC – 3-5 KhZ) then digitized, calibrated and collected at a minimum of 500 Hz (1000 Hz for ECG and 2000 Hz for cardiac electrograms, and 10 KHz for phrenic nerve activity) using Notocord-HEM data acquisition and analysis software. The raw signal was filtered following acquisition with a bandpass filter set to 200–800 Hz). Vehicle (100% dimethylformamdide, DMF) or compound formulated in the vehicle was administered as a 30-minute IV infusion at 0.0167 μL/g body weight/min. Doses were selected to achieve unbound plasma concentrations in range of measured Nav1.6 IC50 values when infused at 0.0167uL/g body weight/min based on measured rat clearance, plasma protein binding and Nav1.6 IC50. Exposure in rats was determined in separate pharmacokinetics experiments where compounds were administered via IV dosing.

[2] = system: anesthetized male CD rats; assay: Rat Cardiovascular/Respiratory (CV/R) assay; type: in vivo; design: ∆ QRS Interval: unit not given here; conditions: rat, IV infusion
Procedure: Male CD Rats were anesthetized with ketamine:xylazine (85 mg/kg:5 mg/kg, im, to effect). The left femoral artery and vein were cannulated for the measurement of blood pressure and the administration of test agent, respectively. The right femoral vein was cannulated for maintenance anesthetic infusion (ketamine:xylazine ~35 mg/kg/hr:1.5 mg/kg/hr, iv, to effect). Needle electrodes were placed subcutaneously at the right axillary and left inguinal areas to record lead II ECGs. When ECG intervals were required to determine effect on cardiac conduction a pacing/recording electrode catheter was advanced through the right jugular vein to pace the heart. ECG intervals were then measured at a fixed cardiac rate of 400 beats/minute to remove any variability of intrinsic heart rate on these parameters.
To determine the test agent-dependent effect on respiratory rate, a tracheotomy was also performed using a short length of polyethylene tubing containing a thermistor (AD Instruments). The change in temperature detected by the thermistor was used to calculate respiratory rate.
as §1

[3] = system: rat diaphragm with the phrenic nerve attached; assay: Rat hemisected diaphragm (HMD) assay, ex vivo
Text: Wistar derived male or female rats weighing 450 ± 50 g were euthanized by CO2 overexposure. The diaphragm with the phrenic nerve attached was removed and placed into a tissue recording chamber containing Krebs solution pH 7.4; (composition in g/L: NaCl 6.89, KCl 0.35, CaCl2 0.277, KH2PO4 0.163, MgSO4 · 7H2O 0.296, NaHCO3 2.1 and glucose 1.8). A piece of cotton was attached to the top of the phrenic nerve over the jaw electrodes. A second piece of cotton was attached to the tip of the tendinous tissue at the apex of the diaphragm preparation for attachment to an isometric transducer under 1 g tension. The rib of the diaphragm preparation was secured to the bottom of the jaw electrodes. […] The recording chamber was placed into a water bath kept at a temperature of 32°C by means of a suitable thermoregulator consisting of a thermostat and heating elements in addition to a water circulator.
The isometric transducer was connected to an amplifier and the tissue response was recorded on a two-pen recorder set at 1 volt. Field stimulation [S48 Stimulator (GRASS) set at 0.2 Hz (12 pulses per minute), 0.5 ms pulse duration at 70% of maximum voltage (about 3 to 5 volts)] delivered to two circle platinum electrodes (0.2 cm in diameter) was applied for transmural tissue stimulation. Each tissue preparation was washed three times in Krebs solution every 15 minutes for a 60 minute equilibration period and permitted to develop contractions. D-Tubocurarine (300 µM dissolved in 0.1 mL distilled water for a final 3 µM bath concentration) was added to establish an isometrically recorded control relaxation response ranging from one to two centimeters and corresponding to 60–70% of maximal relaxation. […] The tissue was then washed periodically until the contraction returns to the baseline value.
Sixty minutes later, the test compound was added (e.g. 30 mM in 0.01 mL vehicle of 100% DMSO, for final concentration of 30 µM test compound and 0.1% DMSO). A test compound recorded relaxation response of 50% or more (≥50%) within 5 minutes, relative to the 3 µM d-Tubocurarine control response, indicates neuromuscular blocking activity.

[4] = Plasma exposure in phrenic nerve activity assay; type: in vivo; conditions: rat; for concentration at 15 min / concentration at 30 min / concentration at 10 min: CD, plasma, intravenous; for concentration at 15 min / concentration at 30 min: 10 mg/kg
Text: as §1

[5] = Plasma exposure in rat CV/R assay; type: in vivo; conditions: rat, rat, IV infusion; for concentration at 15 min / concentration at 30 min: CD, plasma, iv
Text: as §1, with “Doses were selected to achieve unbound plasma concentrations in range of measured Nav1.6 IC50 values when infused at 0.0167uL/g body weight/min based on measured rat clearance, plasma protein binding and Nav1.6 IC50.” left out

[6] = male, 3 mg/kg, 3 mg/kg, read-out: Total [plasma]
[7] = male, 3 mg/kg, 3 mg/kg, read-out: Unbound [plasma]
[8] = 30 mg/kg, 11 min, just prior to death

O=S(=O)(Nc1ncns1)c1cc(F)c(NCC23CCCN2CCC3)cc1F [SSCI-4]
percent decrease in the magnitude of the phrenic nerve signal [1]: 50%
∆ Heart Rate ([2]; 3 mg/kg, 15 min): −3.5 bpm
∆ Mean Arterial Pressure ([2]; 3 mg/kg, 15 min): 6.4 mmHg
∆ QRS Interval ([2]; 3 mg/kg, 15 min): 2.4
∆ respiratory rate ([2]; 3 mg/kg, 15 min): −24.7%
∆ Heart Rate ([2]; 3 mg/kg, 30 min): −5.6 bpm
∆ Mean Arterial Pressure ([2]; 3 mg/kg, 30 min): 2.4 mmHg
∆ QRS Interval ([2]; 3 mg/kg, 30 min): 4.5
∆ respiratory rate ([2]; 3 mg/kg, 30 min): −26.1%
∆ Heart Rate ([2]; 10 mg/kg, 15 min): 6.6 bpm
∆ Mean Arterial Pressure ([2]; 10 mg/kg, 15 min): −5.5 mmHg
∆ QRS Interval ([2]; 10 mg/kg, 15 min): 7.6
∆ respiratory rate ([2]; 10 mg/kg, 15 min): −17.8%
∆ respiratory rate ([2]; 10 mg/kg, 25 min): −100%
∆ respiratory rate ([2]; 30 mg/kg, 11 min): −100%
IC50 ([3]; Rattus norvegicus, relative to 3 μM d-Tubocurarine relaxation = 100%): 8.9 µM
concentration at 15 min ([4]; read-out: Total [plasma]): 55.3 ± 5.5 µM
concentration at 15 min ([4]; read-out: Unbound [plasma]): 23.3 ± 2.61 µM
concentration at 30 min ([4]; read-out: Total [plasma]): 61.6 µM
concentration at 30 min ([4]; read-out: Unbound [plasma]): 29.3 µM
concentration at 10 min ([4]; 30 mg/kg, read-out: Total [plasma]): 91.4 µM
concentration at 10 min ([4]; 30 mg/kg, read-out: Unbound [plasma]): 43.5 µM
Total [plasma] ([4]; 30 mg/kg, 25–33 min): 108.234 ± 9.606 µM
Unbound [plasma] ([4]; 30 mg/kg, 25–33 min): 51.46 ± 4.56 µM
concentration at 15 min ([5]; 10 mg/kg, 10 mg/kg, read-out: Total [plasma]): 31.5 µM
concentration at 15 min ([5]; 10 mg/kg, 10 mg/kg, read-out: Unbound [plasma]): 15 µM
concentration at 15 min [5, 6]: 11.4 µM
concentration at 15 min [5, 7]: 5.4 µM
concentration at 30 min [5, 6]: 17.6 µM
concentration at 30 min [5, 7]: 8.4 µM
Total [plasma] ([5]; 10 mg/kg, 25 min, just prior to death): 39.3a μM
Total [plasma] [5, 8]: 89.7a μM
Unbound [plasma] [5, 8]: 42.7a μM

COc1cc2c3cc1Oc1cc(ccc1O)C[C@@H]1c4c(cc(OC)c(O)c4Oc4ccc(cc4)C[C@@H]3N(C)CC2)CC[N+]1(C)C [d-Tubocurarine, D-Tubocurarine, reference compound]
relaxation, % of the maximal relaxation of the muscle ([3]; 3 μM, termed the 100% inhibition level): 60–70%
